The first assay has as its system CD8+ T cells. Nature of the assay: In vitro immunogenicity: T-cell priming with artificial APCs loaded with peptide/MHC and anti-CD28, pMHC multimer readout. Type of assay: cell-based, human. The settings on record: Table 10A; HLA class I peptides. From the text:
In order to obtain information regarding the immunogenicity of the TUMAPs of the present invention, the inventors performed investigations using an in vitro T-cell priming assay based on repeated stimulations of CD8+ T cells with artificial antigen presenting cells (aAPCs) loaded with peptide/MHC complexes and anti-CD28 antibody.
In order to perform in vitro stimulations by artificial antigen presenting cells loaded with peptide-MHC complex (pMHC) and anti-CD28 antibody, the inventors first isolated CD8+ T cells from fresh HLA-A*02 leukapheresis products via positive selection using CD8 microbeads (Miltenyi Biotec, Bergisch-Gladbach, Germany) of healthy donors obtained from the University clinics Mannheim, Germany, after informed consent.
PBMCs and isolated CD8+ lymphocytes were incubated in T-cell medium (TCM) until use consisting of RPMI-Glutamax (Invitrogen, Karlsruhe, Germany) supplemented with 10% heat inactivated human AB serum (PAN-Biotech, Aidenbach, Germany), 100 U/ml Penicillin/100 μg/ml Streptomycin (Cambrex, Cologne, Germany), 1 mM sodium pyruvate (CC Pro, Oberdorla, Germany), 20 μg/ml Gentamycin (Cambrex). 2.5 ng/ml IL-7 (PromoCell, Heidelberg, Germany) and 10 U/ml IL-2 (Novartis Pharma, Nürnberg, Germany) were also added to the TCM at this step.
Generation of pMHC/anti-CD28 coated beads, T-cell stimulations and readout was performed in a highly defined in vitro system using four different pMHC molecules per stimulation condition and 8 different pMHC molecules per readout condition.
The purified co-stimulatory mouse IgG2a anti human CD28 Ab 9.3 (Jung et al., 1987) was chemically biotinylated using Sulfo-N-hydroxysuccinimidobiotin as recommended by the manufacturer (Perbio, Bonn, Germany). Beads used were 5.6 μm diameter streptavidin coated polystyrene particles (Bangs Laboratories, Illinois, USA).
800.000 beads/200 μl were coated in 96-well plates in the presence of 4×12.5 ng different biotin-pMHC, washed and 600 ng biotin anti-CD28 were added subsequently in a volume of 200 μl. Stimulations were initiated in 96-well plates by co-incubating 1×10^6 CD8+ T cells with 2×10^5 washed coated beads in 200 μl TCM supplemented with 5 ng/ml IL-12 (PromoCell) for 3 days at 37° C. Half of the medium was then exchanged by fresh TCM supplemented with 80 U/ml IL-2 and incubating was continued for 4 days at 37° C. This stimulation cycle was performed for a total of three times. For the pMHC multimer readout using 8 different pMHC molecules per condition, a two-dimensional combinatorial coding approach was used as previously described (Andersen et al., 2012) with minor modifications encompassing coupling to 5 different fluorochromes. Finally, multimeric analyses were performed by staining the cells with Live/dead near IR dye (Invitrogen, Karlsruhe, Germany), CD8-FITC antibody clone SK1 (BD, Heidelberg, Germany) and fluorescent pMHC multimers. For analysis, a BD LSRII SORP cytometer equipped with appropriate lasers and filters was used. Peptide specific cells were calculated as percentage of total CD8+ cells. Evaluation of multimeric analysis was done using the FlowJo software (Tree Star, Oregon, USA). In vitro priming of specific multimer+CD8+ lymphocytes was detected by comparing to negative control stimulations.
Regarding “238 (KLLDKPEQFL; listed as Homo sapiens) [compound 238]”, the “Donors (in vitro immunogenicity)” value is “++ (20%-49% = ++)” and the “Wells (in vitro immunogenicity)” value was “+ (<20% = +)”. The like results for “241 (RLYTKLLNEA; listed as Homo sapiens) [compound 241]” were, in that order, “++++ (≥70% = ++++)” and “+++ (50%-69% = +++)”. “243 (ALAGIVTNV; listed as Homo sapiens) [compound 243]”: the “Donors (in vitro immunogenicity)” value is listed as “++++ (≥70% = ++++)” and the “Wells (in vitro immunogenicity)” value was “+ (<20% = +)”. In the same order, the values of “247 (ALLNAILHSA; listed as Homo sapiens) [compound 247]” are “++++ (≥70% = ++++)” and “+ (<20% = +)”.

In the case of “248 (GLFAGLGGAGA; listed as Homo sapiens) [compound 248]”, the “Donors (in vitro immunogenicity)” value is reported as “++++ (≥70% = ++++)” and the “Wells (in vitro immunogenicity)” value is “+ (<20% = +)”.

On to “250 (RVLPPSALQSV; listed as Homo sapiens) [compound 250]”, for which the “Donors (in vitro immunogenicity)” value was “+++ (50%-69% = +++)” and the “Wells (in vitro immunogenicity)” value is reported as “+ (<20% = +)”. Turning to “252 (YLLDMPLWYL; listed as Homo sapiens) [compound 252]”, the “Donors (in vitro immunogenicity)” value is recorded as “++++ (≥70% = ++++)” and the “Wells (in vitro immunogenicity)” value is “+ (<20% = +)”.

“254 (FLMKNSDLYGA; listed as Homo sapiens) [compound 254]”: the “Donors (in vitro immunogenicity)” value was “++++ (≥70% = ++++)” and the “Wells (in vitro immunogenicity)” value is given as “+ (<20% = +)”. The like results for “257 (VLLNEILEQV; listed as Homo sapiens) [compound 257]” were, in that order, “++++ (≥70% = ++++)” and “++ (20%-49% = ++)”. For “262 (KLAVALLAA; listed as Homo sapiens) [compound 262]”, the “Donors (in vitro immunogenicity)” value was “++ (20%-49% = ++)” and the “Wells (in vitro immunogenicity)” value is given as “++ (20%-49% = ++)”. Turning to “264 (KVFDEVIEV; listed as Homo sapiens) [compound 264]”, the “Donors (in vitro immunogenicity)” value is “+ (<20% = +)” and the “Wells (in vitro immunogenicity)” value is recorded as “+ (<20% = +)”. Regarding “267 (LLTDNVVKL; listed as Homo sapiens) [compound 267]”, the “Donors (in vitro immunogenicity)” value was “++++ (≥70% = ++++)” and the “Wells (in vitro immunogenicity)” value is reported as “+ (<20% = +)”. Take “269 (ALNESLVEC; listed as Homo sapiens) [compound 269]”: the “Donors (in vitro immunogenicity)” value is reported as “++++ (≥70% = ++++)” and the “Wells (in vitro immunogenicity)” value is on record as “+ (<20% = +)”. The like results for “271 (SLVQRVETI; listed as Homo sapiens) [compound 271]” were, in that order, “++ (20%-49% = ++)” and “+ (<20% = +)”. Consider “277 (KTASINQNV; listed as Homo sapiens) [compound 277]”, for which the “Donors (in vitro immunogenicity)” value is recorded as “++++ (≥70% = ++++)” and the “Wells (in vitro immunogenicity)” value is “+++ (50%-69% = +++)”. As to “278 (SLITGQDLLSV; listed as Homo sapiens) [compound 278]”, the “Donors (in vitro immunogenicity)” value is “++++ (≥70% = ++++)” and the “Wells (in vitro immunogenicity)” value is reported as “+ (<20% = +)”. The like results for “283 (YTFSGDVQL; listed as Homo sapiens) [compound 283]” were, in that order, “++++ (≥70% = ++++)” and “+ (<20% = +)”. In the same order, the values of “287 (KISDFGLATV; listed as Homo sapiens) [compound 287]” are “++++ (≥70% = ++++)” and “++ (20%-49% = ++)”.

For the substance “292 (ALGDKFLLRV; listed as Homo sapiens) [compound 292]”, the “Donors (in vitro immunogenicity)” value is reported as “++++ (≥70% = ++++)” and the “Wells (in vitro immunogenicity)” value is listed as “+ (<20% = +)”. The like results for “294 (FLLAEDTKV; listed as Homo sapiens) [compound 294]” were, in that order, “++++ (≥70% = ++++)” and “++ (20%-49% = ++)”. Consider “298 (KLQEEIPVL; listed as Homo sapiens) [compound 298]”, for which the “Donors (in vitro immunogenicity)” value is “++++ (≥70% = ++++)” and the “Wells (in vitro immunogenicity)” value was “+ (<20% = +)”.

In the next assay the target is HLA-A*02:01 (Homo sapiens, UniProt P04439, D140Y/D185E/D98H/E176V/E277Q/G131W/G231S/I119V/I121R/I166T/I218V/L300P/L318F/N151K/N90K/P208A/P217A/Q86G/Q94H/R138H/R169H/T345S). The assay is described as follows: MHC binding assay (UV-ligand exchange, β2m ELISA). The settings on record: MHC class I binding score; binding to HLA-A*02:01 ranged by peptide exchange yield (UV-ligand exchange, β2m ELISA). The gist of the method:
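UV-cleavable peptide in HLA monomers exchanged for test peptide by UV irradiation; exchange yield measured by streptavidin-capture ELISA with HRP anti-β2m (TMB, 450 nm) on 100-fold diluted complexes. Quantified against refolded HLA-A*02:01/MLA-001 standards (15-500 ng/ml).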
On the technique in general: An ELISA detects its analyte on a solid surface through an enzyme-linked reagent.
In the case of “216 (TLLHFLAEL; listed as Homo sapiens) [compound 216]”, the Peptide exchange entry is listed as “++++ (>75% = ++++)”. Take “217 (NMMSGISSV; listed as Homo sapiens) [compound 217]”: the Peptide exchange result was “+++ (>50 = +++)”. On the same count and under the same terms, then “218 (STLHLVLRL; listed as Homo sapiens) [compound 218]”, with “+++ (>50 = +++)”; and “219 (FLDSEVSEL; listed as Homo sapiens) [compound 219]”, with “+++ (>50 = +++)”. Regarding “220 (SAAEPTPAV; listed as Homo sapiens) [compound 220]”, the Peptide exchange result is reported as “+++ (>50 = +++)”. With “221 (SLLPTEQPRL; listed as Homo sapiens) [compound 221]”, the Peptide exchange entry is “+++ (>50 = +++)”. Still for that read-out and setting: next, “222 (LLSEIEEHL; listed as Homo sapiens) [compound 222]”: “++++ (>75% = ++++)”; “223 (FLETNVPLL; listed as Homo sapiens) [compound 223]”: “+++ (>50 = +++)”. In the case of “224 (ILDEPTNHL; listed as Homo sapiens) [compound 224]”, the Peptide exchange entry is “++ (>20% = ++)”. Turning to “225 (VLFGAVITGA; listed as Homo sapiens) [compound 225]”, the Peptide exchange result is recorded as “++++ (>75% = ++++)”. For “226 (VLNEYFHNV; listed as Homo sapiens) [compound 226]”, the Peptide exchange result was “++++ (>75% = ++++)”. Still for that read-out and setting: next, “227 (FLLEQEKTQAL; listed as Homo sapiens) [compound 227]”: “++++ (>75% = ++++)”; “228 (FLNLFNHTL; listed as Homo sapiens) [compound 228]”: “++++ (>75% = ++++)”.

In the case of “229 (LLEPFVHQV; listed as Homo sapiens) [compound 229]”, the Peptide exchange entry is “++++ (>75% = ++++)”. For the substance “230 (HLDEARTLL; listed as Homo sapiens) [compound 230]”, the Peptide exchange entry is listed as “++++ (>75% = ++++)”. As to “231 (KMVGDVTGA; listed as Homo sapiens) [compound 231]”, the Peptide exchange result is “+++ (>50 = +++)”. As for “233 (QLYNQIIKL; listed as Homo sapiens) [compound 233]”, the Peptide exchange result is reported as “++++ (>75% = ++++)”. With “234 (KVPEIEVTV; listed as Homo sapiens) [compound 234]”, the Peptide exchange result is reported as “++++ (>75% = ++++)”. Still for that read-out and setting: then “235 (ALADLQEAV; listed as Homo sapiens) [compound 235]”, with “++++ (>75% = ++++)”. On the same count and under the same terms, next, “236 (GLDSGFHSV; listed as Homo sapiens) [compound 236]”: “++++ (>75% = ++++)”. Still for that read-out and setting: then “237 (VLYNESLQL; listed as Homo sapiens) [compound 237]”, with “++++ (>75% = ++++)”.

The values above are taken from patent publication US10640547B2, “Immunotherapy against melanoma and other cancers” (IMMATICS BIOTECHNOLOGIES GMBH, priority 2016, dated 2020).
